Entries after “also recorded” stand apart in the source; their conditions may differ.
Legend:
[1] = Bitterness perception in aqueous 5% v/v ethanol/H2O solution; conditions: 6 ppm in 5% ethanol/H2O
Description: An aqueous 5% v/v ethanol/H2O solution was spiked with 6 ppm of THICO I, II, and III.

Pediococcus damnosus [2] = experiment: Minimum inhibitory concentration (MIC) in modified BMB without Tween 80 culture medium; assay type: cell-based; set-up: key to Growth of beer spoilage bacteria: + = Growth of beer spoilage bacteria; − = No growth of beer spoilage bacteria; +/− = Partial inhibition of bacterial growth; conditions: for Growth of beer spoilage bacteria: hop acids in 70% ethanol; for Minimum inhibitory concentration (MIC): concentration at which no bacteria were detected
Procedure: (§1) The antimicrobial effect of three molecules was tested on Pediococcus damnosus and Lactobacillus brevis with two methods (MIC and BZI). MIC was determined based on the concentration at which no bacteria were detected in the modified BMB without Tween 80 culture medium. […] The average diameters of the zones of bacterial inhibition in Universal Beer Agar (UBA) produced by the filter paper disks immersed in 4000 ppm of THICO I, II, and III in 70% ethanol/water are shown in Table 5. Zone diameters increased with the same rates for three molecules on two different organisms (Pediococcus damnosus and Lactobacillus brevis) indicate that all molecules have the same antibacterial effectiveness. No enantioselective antibacterial interactions between THICO I, II, III and the microbial occur.

Pediococcus damnosus [3] = experiment: Bacterial zone of inhibition (BZI), filter paper disks on Universal Beer Agar; assay type: cell-based; conditions: disks immersed in 4000 ppm in 70% ethanol/water
Procedure: as §1

Lactobacillus brevis = experiment: as above; assay type: cell-based; conditions: disks immersed in 4000 ppm in 70% ethanol/water
Procedure: as §1

[4] = Sensory evaluation of unhopped lagers spiked with THICO
Description: Two sets of unhopped lagers (A and B) were spiked with 6 ppm and 13 ppm of THICO I, II, and III, respectively.
The other two beers were noted as being similar with initial intense bitterness that diminished slowly with slight lingering bitterness.

[5] = set A: unhopped lager spiked with 6 ppm

| Substance | Bitterness intensity (rank order) [1] | Growth of beer spoilage bacteria (Pediococcus damnosus [2]; 0.5 ppm) | Growth of beer spoilage bacteria (Pediococcus damnosus [2]; 1 ppm) | Growth of beer spoilage bacteria (Pediococcus damnosus [2]; 2 ppm) | Growth of beer spoilage bacteria (Pediococcus damnosus [2]; 4 ppm) | Growth of beer spoilage bacteria (Pediococcus damnosus [2]; 8 ppm) | Growth of beer spoilage bacteria (Pediococcus damnosus [2]; 16 ppm) | Growth of beer spoilage bacteria (Pediococcus damnosus [2]; 32 ppm) | Growth of beer spoilage bacteria (Pediococcus damnosus [2]; 64 ppm) | Growth of beer spoilage bacteria (Pediococcus damnosus [2]; 128 ppm) | Minimum inhibitory concentration (MIC) (Pediococcus damnosus [2]) | Diameter of Bacterial Zone of Inhibition (Pediococcus damnosus [3]) | Diameter of Bacterial Zone of Inhibition (Lactobacillus brevis) | Sensory evaluation of bitterness in beer [4, 5] | Bitterness (bitter perception) [1] | Bitterness (bitter perception) ([1]; listed as (±)-THICO III) | Bitterness intensity (rank order) ([1]; listed as (±)-THICO III) | Sensory evaluation of bitterness in beer ([4]; set A: unhopped lager spiked with 6 ppm, listed as THCO II) | Sensory evaluation of bitterness in beer ([4]; set B: unhopped lager spiked with 13 ppm) |
| --- | --- | --- | --- | --- | --- | --- | --- | --- | --- | --- | --- | --- | --- | --- | --- | --- | --- | --- | --- |
| (+)-cis- and (−)-trans-THICO [THICO I] | THICO II>(±)-THICO III>THICO I | + | + | + | + | + | +/− | − | − | − | 16 ppm | 11.5 mm | 26 mm | a little more initial bitterness |  |  |  |  |  |
| (±)-cis- and (±)-trans-tetrahydroisocohumulones [THICO III] | II>III>I |  |  |  |  |  |  |  |  |  |  | 12 mm | 22.5 mm | diminished quickly | smooth and milder than the others; also recorded: smooth, milder, clean | milder and smooth bitterness than THICO I; also recorded: smooth, clean and milder than I and II | THICO II>(±)-THICO III>THICO I |  |  |
| (−)-cis- and (+)-trans-tetrahydro isocohumulone [THICO II] | THICO II>(±)-THICO III>THICO I | + | + | + | + | + | +/− | − | − | − | 16 ppm | 12 mm | 26.5 mm | the most bitterness and longest lingering |  |  |  | the strongest initial bitterness and lingered the longest | strong initial bitterness that increased (described as late bitterness) and also lingered |
